For 46 molecules, IC50 results are on record in patent US20250215014A1, “KINASE INHIBITORS, PREPARATION METHODS AND USES THEREOF” (InventisBio Co., Ltd., priority 2022, published 2025).

Experiment [1] addresses DGKa (Homo sapiens (Human), UniProt P23743). The experiment is described as follows: DGK ADP-Glo Kinase Assay (DGKa). The settings on record: 10 nM DGKa, 15 uM ATP. It counts as biochemical. The method, then:
(§1) Luminescence was recorded using an Tecan SPARK microplate reader.

For experiment [2], the target named is DGKz (Homo sapiens (Human), UniProt Q13574). Nature of the experiment: DGK ADP-Glo Kinase Assay (DGKz). The settings on record: 5 nM DGKz, 15 uM ATP. It counts as biochemical. The method, then: as §1
For orientation: ADP-Glo turns the ADP formed in a reaction into a luminescent signal.

Sequence of DGKz (Q13574 whole entry): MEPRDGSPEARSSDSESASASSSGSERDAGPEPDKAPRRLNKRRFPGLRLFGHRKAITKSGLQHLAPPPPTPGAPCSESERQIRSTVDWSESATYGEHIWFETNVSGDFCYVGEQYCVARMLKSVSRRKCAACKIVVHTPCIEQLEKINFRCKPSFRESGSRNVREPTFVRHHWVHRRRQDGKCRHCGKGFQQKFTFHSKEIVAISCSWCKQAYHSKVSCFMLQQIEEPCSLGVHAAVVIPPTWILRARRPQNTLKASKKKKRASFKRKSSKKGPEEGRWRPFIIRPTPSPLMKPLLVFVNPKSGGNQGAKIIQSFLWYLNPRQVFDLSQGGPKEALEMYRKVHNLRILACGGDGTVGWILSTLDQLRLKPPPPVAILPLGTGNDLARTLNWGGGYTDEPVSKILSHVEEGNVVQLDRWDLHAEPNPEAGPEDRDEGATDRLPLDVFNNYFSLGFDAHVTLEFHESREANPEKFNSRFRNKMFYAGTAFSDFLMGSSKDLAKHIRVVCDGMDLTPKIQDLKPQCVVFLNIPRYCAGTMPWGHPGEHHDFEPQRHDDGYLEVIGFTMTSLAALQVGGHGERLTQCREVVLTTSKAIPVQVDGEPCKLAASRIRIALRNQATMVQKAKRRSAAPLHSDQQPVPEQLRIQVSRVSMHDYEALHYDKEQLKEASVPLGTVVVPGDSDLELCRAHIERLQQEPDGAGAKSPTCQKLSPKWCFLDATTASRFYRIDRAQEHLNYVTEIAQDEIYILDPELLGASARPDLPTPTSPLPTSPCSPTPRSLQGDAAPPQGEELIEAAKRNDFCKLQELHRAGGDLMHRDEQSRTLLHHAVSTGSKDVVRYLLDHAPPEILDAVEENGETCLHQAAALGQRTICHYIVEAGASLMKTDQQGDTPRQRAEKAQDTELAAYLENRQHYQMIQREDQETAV
Sequence of DGKa (P23743 whole entry): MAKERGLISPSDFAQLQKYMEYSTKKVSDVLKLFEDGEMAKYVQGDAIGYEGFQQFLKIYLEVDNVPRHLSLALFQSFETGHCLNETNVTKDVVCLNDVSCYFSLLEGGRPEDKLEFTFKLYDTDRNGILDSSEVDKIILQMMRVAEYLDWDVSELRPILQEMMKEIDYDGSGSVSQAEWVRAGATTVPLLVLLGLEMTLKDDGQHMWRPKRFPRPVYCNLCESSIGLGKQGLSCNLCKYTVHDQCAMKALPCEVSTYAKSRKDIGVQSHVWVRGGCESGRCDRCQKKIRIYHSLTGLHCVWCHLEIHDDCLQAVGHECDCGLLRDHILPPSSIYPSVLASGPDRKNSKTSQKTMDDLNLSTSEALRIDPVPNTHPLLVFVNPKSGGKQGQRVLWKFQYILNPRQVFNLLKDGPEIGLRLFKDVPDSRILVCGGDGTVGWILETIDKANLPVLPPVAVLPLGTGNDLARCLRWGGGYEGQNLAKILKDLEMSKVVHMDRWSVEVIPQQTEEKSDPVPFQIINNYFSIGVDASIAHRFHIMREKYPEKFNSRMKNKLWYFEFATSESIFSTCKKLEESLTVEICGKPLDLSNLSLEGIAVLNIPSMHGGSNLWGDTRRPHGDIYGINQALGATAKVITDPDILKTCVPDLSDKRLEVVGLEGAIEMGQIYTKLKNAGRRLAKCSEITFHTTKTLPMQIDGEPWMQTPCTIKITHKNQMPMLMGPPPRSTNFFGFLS

By IC50 is commonly meant the concentration that gives 50% inhibition. Read a low IC50 as greater potency. In the case of `Cn1c(=O)c(C(N)=O)c(N2CCC3(CN(c4ccc(OC(F)(F)F)cc4)C3)C2)c2nc(C#N)ccc21` [Compound 15], the IC50 in experiment [1] was less than 100 nM; in experiment [2] it was greater than 1000 nM.
Turning to `CC[C@@H]1C[C@@]2(CCN1c1nc(=O)n(C)c3ccc(C#N)nc13)CC(c1ccc(OC(F)(F)F)cc1)=NO2` (stereo in doubt) [Compound 75], the IC50 in experiment [1] and in experiment [2] was 100 to 1000 nM throughout.
Take `CC[C@@H]1CN(c2nc3nncn3c3ccc(C#N)nc23)[C@@H](C)CN1[C@H](CC)c1ccc(S(F)(F)(F)(F)F)cc1` (stereo in doubt) [Compound 90]: the IC50 was less than 100 nM in experiment [1] and 100 to 1000 nM in experiment [2].
`CCC(c1ccc(C23CC(C2)C3)nc1)N1C[C@H](CC)N(c2nc3nncn3c3ccc(C#N)nc23)C[C@H]1CC` (some centres unmarked) [Compound 104]: the IC50 in experiment [1] and in experiment [2] was less than 100 nM throughout.
As for `Cc1ccc2oc(C3CCN(c4nc(=O)n(C)c5cc(O[C@H]6CCOC6)c(Cl)cc45)CC3)nc2c1` [Compound 33], the IC50 in experiment [1] and in experiment [2] was less than 100 nM in each case.
For `Cn1c(=O)nc(N2CCCc3c(C#CC4CC4)cccc32)c2nc(C#N)ccc21` [Compound 42], the IC50 is less than 100 nM in experiment [1] and 100 to 1000 nM in experiment [2].
For `CC[C@@H]1CN2c3c(c(=O)n(C)c4ccc(C#N)nc34)OC[C@@H]2CN1[C@H](CC)c1ccc(SC(F)(F)F)cc1` [Compound 124], the results for the IC50 in experiment [1] and in experiment [2] were less than 100 nM and 100 to 1000 nM, respectively.
As for `Cn1c(=O)nc(N2CCC3(CC2)CC(c2ccc(OC(F)(F)F)cc2)=NO3)c2nc(C#N)ccc21` [Compound 31], the IC50 in experiment [1] and in experiment [2] was less than 100 nM in each case.
For `CC[C@H]1CN([C@@H](CC)c2nc(C3CC3)no2)[C@H](CC)CN1c1nc2nncn2c2ccc(C#N)nc12` [Compound 119], the IC50 in experiment [1] and in experiment [2] was less than 100 nM throughout.
For `CC[C@H]1CN([C@H](c2ccc(SC(F)(F)F)cc2)c2nc(C3CC3)cs2)[C@H](CC)CN1c1nc(=O)n(C)c2ccc(C#N)nc12` [Compound 57], the IC50 is less than 100 nM in experiment [1] and 100 to 1000 nM in experiment [2].
Regarding `CC[C@H]1C[C@@H](c2nc3cc(C)ccc3o2)CCN1c1nc(=O)n(C)c2cc(O[C@@H]3CCOC3)c(Cl)cc12` [Compound 94], the IC50 was 100 to 1000 nM in experiment [1] and greater than 1000 nM in experiment [2].
For `CC[C@H]1CN(C(c2ccc(S(F)(F)(F)(F)F)cc2)C2CC2)[C@H](CC)CN1c1nc(=O)n(C)c2ccc(C#N)nc12` (single isomer, unassigned) [Compound 118], the IC50 in experiment [1] is less than 100 nM; in experiment [2], 100 to 1000 nM.
On to `CC[C@H]1CN(C(COC)c2ccc(S(F)(F)(F)(F)F)cc2)[C@H](CC)CN1c1nc(=O)n(C)c2ccc(C#N)nc12` (some centres unmarked) [Compound 78], for which the IC50 in experiment [1] and in experiment [2] was less than 100 nM each time.
As to `CC[C@@H]1CN2c3c(c(=O)n(C)c4ccc(C#N)nc34)OC[C@@H]2CN1[C@@H](CC)c1ccc(SC(F)(F)F)cc1` [Compound 123], the IC50 in experiment [1] was less than 100 nM; in experiment [2], 100 to 1000 nM.
Regarding `N#Cc1ccc2c(n1)c(N1CCC3(CC1)CC(c1ccc(SC(F)(F)F)cc1)=NO3)nc1nncn12` [Compound 54], the IC50 in experiment [1] was less than 100 nM; in experiment [2], 100 to 1000 nM.
`CC[C@H]1CN([C@H](CC)c2cccc(S(F)(F)(F)(F)F)c2)[C@H](CC)CN1c1nc(=O)n(C)c2ccc(C#N)nc12` (stereo in doubt) [Compound 56]: the IC50 in experiment [1] and in experiment [2] was 100 to 1000 nM throughout.
`CC[C@@H]1CN(c2nc(=O)n(C)c3ccc(C#N)nc23)[C@@H](C)CN1C(c1ccc(S(F)(F)(F)(F)F)cc1)c1nc(C2CC2)no1` (some centres unmarked) [Compound 65]: the IC50 in experiment [1] and in experiment [2] was less than 100 nM throughout.
In the case of `Cn1c(=O)nc(N2CCCc3c(C#CC4CC4)cccc32)c2nc(C#N)ccc21` [Compound 39], the IC50 in experiment [1] is less than 100 nM; in experiment [2] it was greater than 1000 nM.
On to `CC[C@@H]1CN(c2nc3nncn3c3ccc(C#N)nc23)[C@@H](C)CN1[C@@H](CC)c1ccc(S(F)(F)(F)(F)F)cc1` (stereo in doubt) [Compound 80], for which the IC50 in experiment [1] and in experiment [2] was less than 100 nM in each case.
As for `CC[C@H]1CN([C@H](CC)c2ccc(S(F)(F)(F)(F)F)cc2)[C@H](CC)CN1c1nc(=O)n(C)c2ccc(C#N)nc12` [Compound 29], the IC50 in experiment [1] and in experiment [2] was less than 100 nM each time.
As to `CC[C@H]1CN([C@H]2CCCCc3cc(C(F)(F)F)ccc32)[C@H](CC)CN1c1nc(=O)n(C)c2ccc(C#N)nc12` [Compound 44], the results for the IC50 in experiment [1] and in experiment [2] were less than 100 nM and 100 to 1000 nM, respectively.
Consider `N#Cc1ccc2c(n1)c(N1CCC3(CC1)CC(c1ccc(C(F)(F)F)cc1)=NO3)nc1nncn12` [Compound 53], for which the IC50 in experiment [1] was less than 100 nM; in experiment [2], 100 to 1000 nM.
On to `CC[C@H]1CN([C@@H](C)c2ccc(S(F)(F)(F)(F)F)cc2)[C@H](CC)CN1c1nc2nncn2c2ccc(C#N)nc12` (stereo in doubt) [Compound 88], for which the half-inhibitory concentration (IC50) in experiment [1] and in experiment [2] was less than 100 nM throughout.
For the molecule `CC[C@@H]1CN(c2nc(=O)n(C)c3ccc(C#N)nc23)[C@@H](C)CN1[C@H](c1ccc(F)cc1)c1ccc(SC(F)(F)F)cn1` [Compound 73], the IC50 in experiment [1] and in experiment [2] was less than 100 nM in each case.
With `CC[C@@H]1C[C@H](c2nc3cc(C)ccc3o2)CCN1c1nc(=O)n(C)c2cc(O[C@@H]3CCOC3)c(Cl)cc12` [Compound 92], the IC50 in experiment [1] was 100 to 1000 nM; in experiment [2] it was less than 100 nM.
In the same order, the values of `CC[C@H]1CN([C@@H](CC)c2ccc(S(F)(F)(F)(F)F)cc2)[C@H](CC)CN1c1nc(=O)n(C)c2ccc(C#N)nc12` [Compound 28] are less than 100 nM and less than 100 nM.
Regarding `CC[C@@H]1CN2c3c(c(=O)n(C)c4ccc(C#N)nc34)OC[C@@H]2CN1[C@@H](CC)c1ccc(C(F)(F)F)cc1` [Compound 121], the IC50 is less than 100 nM in experiment [1] and greater than 1000 nM in experiment [2].
With `CC[C@H]1CN([C@@H](CC)c2ccc(C(F)(F)F)cc2)[C@H](CC)CN1c1nc2nncn2c2ccc(C#N)nc12` (single isomer, unassigned) [Compound 34], the IC50 in experiment [1] and in experiment [2] was less than 100 nM in each case.
With `CC[C@H]1CN([C@H](C)c2ccc(S(F)(F)(F)(F)F)cc2)[C@H](CC)CN1c1nc(=O)n(C)c2ccc(C#N)nc12` (stereo in doubt) [Compound 63], the IC50 in experiment [1] was less than 100 nM; in experiment [2], 100 to 1000 nM.
For `Cc1ccc2oc(C3CCN(c4nc(=O)n(C)c5ccc(C#N)nc45)CC3)nc2c1` [Compound 20], the IC50 in experiment [1] and in experiment [2] was greater than 1000 nM each time.
Turning to `CC[C@H]1CN([C@H](C)c2ccc(S(F)(F)(F)(F)F)cc2)[C@H](CC)CN1c1nc2nncn2c2ccc(C#N)nc12` (stereo in doubt) [Compound 89], the IC50 in experiment [1] is less than 100 nM; in experiment [2] it was 100 to 1000 nM.
For `CC[C@H]1CN([C@@H](CC)c2ccc(OC)cc2F)[C@H](CC)CN1c1nc2nncn2c2ccc(C#N)nc12` (stereo in doubt) [Compound 115] the same measures were less than 100 nM and less than 100 nM.
`CC[C@@H]1CN(c2nc3nncn3c3ccc(C#N)nc23)[C@@H](CC)CN1C(=O)c1ccc(C(F)(F)F)cc1` [Compound 84]: the IC50 in experiment [1] was less than 100 nM; in experiment [2], greater than 1000 nM.
With `CC[C@H]1CN(C(c2ccc(S(F)(F)(F)(F)F)cc2)c2nc(C3CC3)no2)[C@H](CC)CN1c1nc(=O)n(C)c2ccc(C#N)nc12` (some centres unmarked) [Compound 64], the IC50 in experiment [1] and in experiment [2] was less than 100 nM each time.
`CN(c1cccc(C#CC2CC2)c1)c1nc(=O)n(C)c2ccc(C#N)nc12` [Compound 46]: the IC50 in experiment [1] is less than 100 nM; in experiment [2] it was 100 to 1000 nM.
For `CC[C@H]1CN([C@@H](CC)c2cccc(C(F)(F)F)c2)[C@H](CC)CN1c1nc2nncn2c2ccc(C#N)nc12` (stereo in doubt) [Compound 105] the same measures were less than 100 nM and less than 100 nM.
For `CC[C@@H]1CN(c2nc(=O)n(C)c3ccc(C#N)nc23)[C@@H](C)CN1[C@@H](c1ccc(F)cc1)c1ccc(SC(F)(F)F)cn1` [Compound 72] the same measures were less than 100 nM and less than 100 nM.
In the case of `CC[C@@H]1CN(c2nc3nncn3c3ccc(C#N)nc23)[C@@H](C)CN1[C@H](CC)c1ccc(SC(F)(F)F)cc1` (stereo in doubt) [Compound 71], the values for the IC50 in experiment [1] and in experiment [2] were less than 100 nM and 100 to 1000 nM, respectively.
Turning to `CC[C@@H]1CN(c2nc3nncn3c3ccc(C#N)nc23)[C@@H](CC)CN1C(=O)Cc1ccc(C(F)(F)F)cc1` [Compound 85], the IC50 in experiment [1] was less than 100 nM; in experiment [2], 100 to 1000 nM.
In the same order, the values of `CC[C@H]1CN(C(C)c2ccc(SC(F)(F)F)cc2)[C@H](CC)CN1c1nc2nncn2c2ccc(C#N)nc12` (some centres unmarked) [Compound 51] are less than 100 nM and less than 100 nM.
On to `CC[C@@H]1CN(c2nc(=O)n(C)c3ccc(C#N)nc23)[C@@H](C)CN1[C@H](CC)c1ccc(S(F)(F)(F)(F)F)cc1` (stereo in doubt) [Compound 61], for which the IC50 in experiment [1] and in experiment [2] was 100 to 1000 nM throughout.
For the molecule `Cc1ccc2oc(C3CCN(c4nc(=O)n(C)c5ccc6nncn6c45)CC3)nc2c1` [Compound 22], the IC50 in experiment [1] is less than 100 nM; in experiment [2], greater than 1000 nM.
With `CC[C@H]1CN([C@H](CC)c2ccc(C(F)(F)F)cc2)[C@H](CC)CN1c1nc2nncn2c2ccc(C#N)nc12` (single isomer, unassigned) [Compound 110], the IC50 is less than 100 nM in experiment [1] and 100 to 1000 nM in experiment [2].
As to `Cn1c(=O)nc(N2CCC3(CCN(c4ccc(OC(F)(F)F)cc4)C3)CC2)c2nc(C#N)ccc21` [Compound 8], the IC50 in experiment [1] and in experiment [2] was 100 to 1000 nM throughout.
Consider `Cn1c(=O)nc(N2CCC3(CC2)COC(c2ccc(OC(F)(F)F)cc2)=N3)c2nc(Cl)ccc21` [Compound 37], for which the results for the IC50 in experiment [1] and in experiment [2] were less than 100 nM and 100 to 1000 nM, respectively.
With `CC[C@H]1CN([C@@H](CC)c2ccc(SC(F)(F)F)cc2)[C@H](CC)CN1c1nc2nncn2c2ccc(C#N)nc12` (single isomer, unassigned) [Compound 68], the figures for the IC50 in experiment [1] and in experiment [2] were less than 100 nM and 100 to 1000 nM, respectively.
